According to publication PMC12554789, “Benzoxazole Derivatives as Potent FXR and PPARα Dual Agonists With Anti‐Fibrotic and Metabolic Regulatory Effects” (MedComm, 2025):

Tests used:
[1] = biological target: T1, PPARα LBD (Homo sapiens, UniProt Q07869); assay: Thermal shift assay, PPARα LBD; format: binding; settings: ligand 20 µM
T1 construct: purchased Sigma SRP2054
T1 sequence (Q07869 239-466 limits assumed): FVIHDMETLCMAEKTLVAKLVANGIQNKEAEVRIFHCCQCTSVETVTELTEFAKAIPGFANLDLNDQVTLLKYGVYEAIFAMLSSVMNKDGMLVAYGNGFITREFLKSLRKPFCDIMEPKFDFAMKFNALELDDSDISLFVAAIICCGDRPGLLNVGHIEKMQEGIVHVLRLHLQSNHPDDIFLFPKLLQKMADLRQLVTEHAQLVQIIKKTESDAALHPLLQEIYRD

[2] = biological target: T2, FXR LBD (Homo sapiens, UniProt Q96RI1); assay: Thermal shift assay, FXR LBD; format: binding; settings: ligand 20 µM
T2 construct: purchased Sigma SRP2137
T2 sequence (Q96RI1 262-486 limits assumed): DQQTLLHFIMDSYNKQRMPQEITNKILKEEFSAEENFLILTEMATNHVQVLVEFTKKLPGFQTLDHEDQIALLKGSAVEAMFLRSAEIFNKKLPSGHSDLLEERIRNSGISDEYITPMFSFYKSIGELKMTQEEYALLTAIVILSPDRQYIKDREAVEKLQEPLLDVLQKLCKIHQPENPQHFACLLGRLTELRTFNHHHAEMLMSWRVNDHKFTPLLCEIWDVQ

[3] = system: TAA-induced liver fibrosis model; assay: TAA-induced liver fibrosis mouse model (8 weeks); format: in vivo
Experimental: To further explore the effects on fibrosis suppression, a thioacetamide (TAA)-induced liver fibrosis model was used. Liver fibrosis was induced by intraperitoneal injection of TAA at a dose of 150 mg/kg, administered three times a week for 8 weeks. […] After the treatment period, the mice were euthanized using CO2. Serum was collected for biochemical analysis, and liver tissues were immediately harvested and frozen in liquid nitrogen for subsequent quantitative reverse transcription polymerase chain reaction (qRT-PCR), western blotting, and biological analysis. Furthermore, some liver samples were fixed in 4% paraformaldehyde buffered to neutral pH for histochemical analysis. For long-term storage, remaining liver samples were stored at -80°C in a deep freezer. […] Liver fibrosis was induced by administering TAA intraperitoneally at a dose of 150 mg/kg three times a week for a duration of […]. […] Upon completion of the treatment period, mice were euthanized using CO2, and serum and liver tissue samples were harvested for subsequent evaluation. Serum samples collected from mice were incubated at room temperature for 20 min before being centrifuged at 3000 rpm for 20 min to separate blood cells and clotting factors. Serum alanine transaminase (ALT) and aspartate aminotransferase (AST) activities were measured using ALT and AST assay kits (Asan Pharm, Seoul, Republic of Korea) to assess liver injury. Blood urea nitrogen (BUN) levels in the serum were analyzed using a commercial assay kit ([…]-BUN, […] Diagnostics, Seoul, Republic of Korea; catalog number 1120171) following the manufacturer's guidelines. Creatinine levels in the serum were quantified using the […] assay kit ([…] Diagnostics; catalog number 1120051) in accordance with the manufacturer's instructions. Liver and kidney tissues were processed to detect histological changes through the following procedures. The tissues were fixed in 4% paraformaldehyde, and paraffin-embedded sections were prepared for H&E staining according to standard procedures. […]

SMILES | Melting temperature of PPARα LBD [1] | Melting temperature of FXR LBD [2] | Damaged hepatocytes (H&E) ([3]; TAA mice) | Serum AST level ([3]; TAA mice, oral 3 mg/kg daily, increase still higher than in MHY5396 group) | Protection against fibrosis ([3]; TAA model, MHY5396 versus OCA)
CC(C)(Oc1ccc(C(=O)c2ccc(Cl)cc2)cc1)C(=O)O [fenofibric acid] | altered | – | – | – | –
CC[C@H]1[C@@H](O)[C@@H]2[C@H](CC[C@]3(C)[C@@H]([C@H](C)CCC(=O)O)CC[C@@H]23)[C@@]2(C)CC[C@@H](O)C[C@@H]12 [OCA, obeticholic acid] | – | altered | fewer damaged hepatocytes | smaller increase in AST levels than that in the TAA group | protective effects against fibrosis
